# Patent US20240189449A1, “LIPID NANOPARTICLES AND POLYNUCLEOTIDES ENCODING ORNITHINE TRANSCARBAMYLASE FOR THE TREATMENT OF ORNITHINE TRANSCARBAMYLASE DEFICIENCY” (ModernaTX, Inc., priority 2021, published 2024)
# How the values were obtained:
# mice [1] = experiment: Luciferase expression, total whole body flux, mice; format: in vivo
# Method: (§1) To further assess potency of expression and metabolic stability of lipids of the disclosure, expression of luciferase was measured following administration to rodents of a nanoparticle of the disclosure comprising an mRNA containing luciferase.
# Lipid nanoparticles including DSPC as a phospholipid, cholesterol as a structural lipid, Compound I as a PEG lipid, an ionizable amino lipid of Formula (II), and an mRNA encoding luciferase were intravenously administered to CD-1 mice and Sprague Dawley rats. […]
# mice [2] = experiment: Residual lipid levels in the liver at 24 h, mice (luciferase mRNA LNPs); format: in vivo
# CD-1 mice [3] = experiment: hEPO expression in serum after IV lipid nanoparticles with hEPO mRNA, CD-1 mice; format: in vivo; conditions: LNP with DSPC, cholesterol, Compound I; for Mean 6 hr hEPO Concentration: serum 6 hours after injection
# Method: To assess potency of expression and metabolic stability of lipids of the disclosure, hepatocyte protein expression (hEPO) was measured following administration to mice of a nanoparticle of the disclosure.
# (§2) Lipid nanoparticles including DSPC as a phospholipid, cholesterol as a structural lipid, Compound I as a PEG lipid, an ionizable amino lipid of Formula (II), and an mRNA encoding hEPO were intravenously administered to CD-1 mice. The concentration of hEPO in serum was tested at 6 hours after injection.
# Sprague Dawley rats [4] = experiment: hEPO expression in serum after IV lipid nanoparticles with hEPO mRNA, Sprague Dawley rats; format: in vivo; conditions: serum 6 hours after injection
# Method: To further assess potency of expression and metabolic stability of lipids of the disclosure, hepatocyte protein expression (hEPO) was measured following administration to rats of a nanoparticle of the disclosure.
# as §2, with “Sprague Dawley rats.” for “CD-1 mice.”
# CD-1 mice [5] = experiment: Parent lipid remaining in liver at 24 h, CD-1 mice (hEPO mRNA LNPs); format: in vivo; conditions: for Approx. Percent Total Dose of Parent Lipid Remaining at 24 h: calculation assumes a 25 g mouse with a 1.5 g liver
# cynomolgus monkeys = experiment: Luciferase level in livers ex vivo (ELISA), cynomolgus monkeys; conditions: IV
# Method: To the assess potency of expression and metabolic stability of lipids of the disclosure in different species, the expression of an mRNA was measured following administration to non-human primates of a nanoparticle of the disclosure containing the mRNA.
# as §2, with “luciferase” for “hEPO”, “cynomolgus monkeys.” for “CD-1 mice.”, “level” for “concentration”, “livers ex vivo” for “serum”, “measured via ELISA” for “tested”
# CD-1 mice [6] = experiment: NPI-Luciferase expression, ex vivo liver bioluminescence, CD-1 mice; format: in vivo; conditions: mouse, IV
# Method: as §1
# as §2, with “luciferase” for “hEPO”, “mice and Sprague Dawley rats.” for “mice.”, “level” for “concentration”, “expression” for “hEPO in serum”, “tested via bioluminescence in the liver ex vivo” for “tested”
# Sprague Dawley rats [7] = experiment: NPI-Luciferase expression, ex vivo liver bioluminescence, Sprague Dawley rats; format: in vivo; conditions: rat, IV
# Method: as §1
# as §2, with “luciferase” for “hEPO”, “mice and Sprague Dawley rats.” for “mice.”, “level” for “concentration”, “expression” for “hEPO in serum”, “tested via bioluminescence in the liver ex vivo” for “tested”
# Sprague Dawley rats [8] = experiment: Parent lipid remaining in liver tissue at 24 h, rats; format: in vivo; conditions: rat
# Sprague Dawley rats [9] = experiment: Tolerability in rats: reporter antibody construct expression (ELISA) and liver toxicity; format: in vivo; conditions: IV
# Method: To assess tolerability of the lipids of the disclosure, expression of a reporter antibody construct induced by sample formulations was assessed in rats.
# Lipid nanoparticles including DSPC as a phospholipid, cholesterol as a structural lipid, Compound I as a PEG lipid, an ionizable amino lipid of Formula (II), and an mRNA encoding a reporter antibody construct were intravenously administered to Sprague Dawley rats. […] For the formulations tested, high levels of the reporter antibody were measured with minimal signs of liver toxicity (Table 15).
SMILES,Total Whole Body Flux @ 6 h (mice [1]) [p/s],% Lipid Remaining @ 24 h (mice [2]) [%],hEPO AUC (CD-1 mice [3]),Mean 6 hr hEPO Concentration (CD-1 mice [3]) [mIU/mL],Mean 6 hr hEPO Concentration (Sprague Dawley rats [4]) [mIU/mL],Parent Lipid Remaining (nmol/g liver tissue) at 24 h (CD-1 mice [5]) [nmol/g liver tissue],Approx. Percent Total Dose of Parent Lipid Remaining at 24 h (CD-1 mice [5]) [%],Mean 6 h NPI-Luciferase Concentration (cynomolgus monkeys) [ng/g],Mean 6 h ex vivo Liver NPI-Luciferase Total Flux (CD-1 mice [6]) [photons/second],Mean 6 h ex vivo Liver NPI-Luciferase Total Flux (Sprague Dawley rats [7]) [photons/second],Approx. Percent Total Dose of Parent Lipid Remaining at 24 h (Sprague Dawley rats [8]),Mean Reporter Antibody Construct Concentration (Sprague Dawley rats [9]) [ng/mL]
CCCCCCCCC(CCCCCCCC)OC(=O)CCCCCCCN(CCCCCCCC(=O)OCC(CC)CCCCCCC)CCCNc1c(NC)c(=O)c1=O (centres unmarked) [Compound 11],1.04E+10,23 ± 6,–,–,–,–,–,–,–,–,–,–
"CCCCCC(CCCCC)CCOC(=O)CCCCCCCN(CCCCCCCC(=O)OCCC(CCCC)CCCC)CCCNc1c(NC)c(=O)c1=O [Compound 54, 3-Butylheptyl 8-((3-((2-(methylamino)-3,4-dioxocyclobut-1-en-1-yl)amino)propyl)(8-oxo-8-((3-pentyloctyl)oxy)octyl)amino)octanoate]",–,–,1.97E+07,647775,476742,12 ± 1,12,693,–,–,–,–
"CCCCCC(CCCCC)CCOC(=O)CCCCCCCN(CCCCCCCC(=O)OCCC(CCCCC)CCCCC)CCCNc1c(NC)c(=O)c1=O [Compound 30, Bis(3-pentyloctyl) 8,8′-((3-((2-(methylamino)-3,4-dioxocyclobut-1-en-1-yl)amino)propyl)azanediyl)dioctanoate]",–,–,2.40E+07,1592050,688780,25 ± 4,26,782,299800000,963633333.3,25%,–
CCCCCCCCC(CCCCCCCC)OC(=O)CCCCCCCN(CCCCCCCC(=O)OCCC(CCC)CCCCCC)CCCNc1c(NC)c(=O)c1=O (centres unmarked) [Compound 18],–,–,3.17E+07,2158772,–,40 ± 7,41,–,372800000,1473333333,41%,–
CCCCCCCCC(CCCCCCCC)OC(=O)CCCCCCCN(CCO)CCCCCCCC(=O)OCCC(CCCCC)CCCCC [Compound 24],–,–,1.93E+07,1160499,–,3 ± 1,2,–,240400000,2020000000,2%,–
CCCCC(CCCC)CCOC(=O)CCCCCCCN(CCCCCCCC(=O)OCCC(CCCC)CCCC)CCCNc1c(NC)c(=O)c1=O [Compound 55],–,–,1.99E+07,1332073,161760,3 ± 0.6,3,–,–,–,–,–
CCCCCCCCC(CCCCCCCC)OC(=O)CCCCCCCN(CCO)CCCCCCCC(=O)OCCC(CCCC)CCCCCC (centres unmarked) [Compound 7],6.09E+10,<1,2.13E+07,1355957,–,0.3 ± 0.2,0.2,–,–,–,–,–
CCCCCCC(CCCCCC)OC(=O)CCCCCCCN(CCCCCCCC(=O)OCCC(CCC)CCC)CCCNc1c(NC)c(=O)c1=O [Compound 64],–,–,2.43E+07,1760015,161146,4.9 ± 0.9,6 ± 0.8,–,–,–,–,–
CCCCCCCCC(CCCCCCCC)OC(=O)CCCCCCCN(CCCCCCCC(=O)OCC(CCC)CCCCCCC)CCCNc1c(NC)c(=O)c1=O (centres unmarked) [Compound 9],1.82E+10,68 ± 10,–,–,–,–,–,–,–,–,–,–
CCCCCCCCC(CCCCCCCC)OC(=O)CCCCCCCN(CCO)CCCCCCCC(=O)OCC(CCC)CCCCCCC (centres unmarked) [Compound 8],3.82E+10,<1,–,–,–,–,–,–,–,–,–,–
CCCCCC(CCCCC)OC(=O)CCCCCCCN(CCCCCCCC(=O)OCCC(CCCC)CCCC)CCCNc1c(NC)c(=O)c1=O [Compound 61],–,–,1.44E+07,1020791,362569,5.1 ± 0.8,6 ± 0.3,–,–,–,–,–
CCCCCCCCC(CCCCCCCC)OC(=O)CCCCCCCN(CCCCCCCC(=O)OCC(CCCC)CCCCCCC)CCCNc1c(NC)c(=O)c1=O (centres unmarked) [Compound 10],4.6E+09,67 ± 7,–,–,–,–,–,–,–,–,–,–
CCCCCCCCC(CCCCCCCC)OC(=O)CCCCCCCN(CCO)CCCCCCCC(=O)OCCC(CCC)CCCCCC (centres unmarked) [Compound 13],3.77E+10,<1,–,–,–,–,–,–,–,–,–,–
CCCCCCCCC(CCCCCCCC)OC(=O)CCCCCCCN(CCO)CCCCCCCC(=O)OCCC(CCCCCC)C(C)C (centres unmarked) [Compound 12],2.39E+10,<1,–,–,–,–,–,–,–,–,–,–
CCCCCCCCC(CCCCCCCC)COC(=O)CCCCCN(CCCCCCCC(=O)OC(CC)CCCCCCCC)CCCNc1c(NC)c(=O)c1=O (centres unmarked) [Compound 14],–,–,4.53E+07,2952339,–,56 ± 6,58,–,465200000,1567000000,58%,–
CCCCC(CCCC)CCOC(=O)CCCCCCCN(CCCCCCCC(=O)OCCC(CCC)CCC)CCCNc1c(NC)c(=O)c1=O [Compound 52],–,–,3.82E+06,564670,–,<1,<1,–,–,–,–,–
CCCCCC(CCCCC)CCOC(=O)CCCCCCCN(CCO)CCCCCCCC(=O)OCCC(CCCCC)CCCCC [Compound 25],–,–,1.07E+07,591942,–,0.1 ± 0.04,<0.1,–,336800000,4068000000,<0.1%^,948617
CCCCCCCCC(CCCCCCCC)OC(=O)CCCCCCCN(CCCCCCCC(=O)OCC(CCCCCCC)C(C)C)CCCNc1c(NC)c(=O)c1=O (centres unmarked) [Compound 19],–,–,3.11E+07,2089101,–,73 ± 6,75,–,–,–,–,–
CCCCCCCCC(CCCCCCCC)OC(=O)CCCCCCCN(CCCCCCCC(=O)OCCCC(CCCCC)CCCCC)CCCNc1c(NC)c(=O)c1=O [Compound 32],–,–,1.63E+06,111656,–,69 ± 17,71,–,–,–,–,–
